# Results from US12559784B2 (priority 2023, dated 2026).
# Values joined by “and” are separate entries in the source; they are usually repeats but may differ in a detail not shown here. Equal entries are not always repeated. Where two headings read alike, the source gives them in different places.
# Experiments:
# porcine skin = conditions: R 1 and 2
# Experimental: Our initial studies involved using fresh and frozen porcine skin “buttons”. These buttons were punched out of porcine skin (Spear Products, Cooopersburg, PA) using a […] biopsy punch tool. Three different kinds of skin buttons were prepared from fresh porcine skin, frozen porcine skin, and frozen porcine skin with the fatty layer removed. […] The next day, the tubes were taken out and vortexed and 500 μL of the solution was aliquoted into cuvettes to read at three different optical density wavelengths (OD190, OD290, OD300) to evaluate the best response.
# Skin Preparation • 1. Thaw 2 pieces of frozen porcine skin • 2. Punch out buttons: 24 buttons in each tube filled with 40 mL PB S-Azide 96-well plate Preparation • 1. Plate layout for dosing:
# Procedure • 1. Dose each tissue with 140 μL of test chemical • 2. […] Take out of incubator and vortex pulse 3× • 2. Aliquot 500 μL to cuvette and read results at OD190, OD290, and OD300
# There were three readings done at an optical density of 190, 290, and 300 nm to evaluate the best response. […] To address the variable exposure conditions, our next studies involved placing a larger porcine skin section into a holder that exposes only the epidermis side with no potential for test chemical exposure from the backside or through the sides.
# phosphatase = assay type: biochemical, porcine
# Experimental: Our next studies involved applying the test substance (500 μL) directly to the epidermis side of previously frozen porcine skin (Spear Products, Coopersburg, PA) that is placed in a holder that only exposes the epidermis side for 30 minutes, adding phosphate buffered saline (PBS) with added sodium azide (metabolic inhibitor that ensure no viable tissue), then aliquoting into cuvettes to read at an optical density of 300 nm. […] So, at the end of the initial studies described above, almost out of frustration, we tried to probe for released phosphatase activity using p-Nitrophenyl phosphate disodium salt (PNPP; Sigma Aldrich, St. Louis, MO) substrate solution to detect any presence of phosphatase.
# Preparation • 1. Thaw 2 pieces of frozen porcine skin • a. Punch out as many skin discs and mount in holders • 2. Label cuvettes (3 for each chemical) Procedure • 1. Add 500 μL of test chemical to holder; incubate at room temperate for 30 minutes • 2. After 30 minutes, add 2 mL of PBS-Azide to both the holder containing the test chemical; forcefully pipette and re-pipette 10 times • 3. From the holder, aliquot 400 μL into 3 cuvettes; forcefully pipette and re-pipette 3 times before dispensing into cuvettes Reading Results • 1. Measure at OD300 for all cuvettes
# Skin corrosion by GHS Category 1 dermal corrosive chemicals results in the disintegration of the epidermis into the dermis.
# alkaline phosphatase [1] = experiment: Alkaline phosphatase experiment, ninth week: microcentrifuge tubes vs glass vials; assay type: biochemical; conditions: ethanol alkaline phosphatase 1:100, 4 hours room temperature, 1-hour PNPP
# Experimental: Feb. […] The test chemicals included water, acetic acid, heptanal, dimethylisopropylamine, n-Heptylamine, and N,N-Dimethylbenzylamine. We believe that when tilting the glass vial to mix by pipette/re-pipette, the alkaline phosphatase is sticking to the sides and therefore when the p-Nitrophenyl phosphate disodium salt (PNPP) is added, it immediately detects alkaline phosphatase presence and turns intensely yellow. In addition, by sticking to the side of the vial, since the volume of the test chemical added is low, the chance the test chemical interacting with the alkaline phosphatase might be less, therefore resulting in an intensely yellow enzyme reaction product. This study focused on the two stocks (one from previous experiment and a freshly made one) 1:100 concentration ethanol alkaline phosphatase reaction reagent. […] For the 4 mL vials, 30 μL of the test chemical is added to 300 μL of the alkaline phosphatase reaction reagent and incubated for 4 hours at room temperature.
# alkaline phosphatase [2] = assay type: biochemical
# Experimental: New stocks were made the of the 1:100 alkaline phosphatase reaction reagents.
# The conditions included: 1:100 dilution of alkaline phosphatase reaction reagent with two solvents (buffered saline and ethanol), dosing in 0.5 mL microcentrifuge tubes with 20 μL of chemical added to 180 μL of reaction reagent, and incubating with p-Nitrophenyl phosphate disodium salt (PNPP) substrate for 1-hour.
# skin = conditions: rabbit, in vivo; cited from earlier work
# [3] = frozen porcine skin with fat layer removed
smiles,measurement,setting,value
CCCCCCC=O [Heptanal],OD190,"porcine skin; fresh porcine skin, 140 μL test chemical, >3A = outside readable range",0.486 and 0.365
same,OD290,porcine skin; fresh porcine skin,0.170 and 0.165
same,OD300,porcine skin; fresh porcine skin,0.123
same,OD190,porcine skin; [3],0.144 and 0.149
same,OD290,porcine skin; [3],0.111 and 0.140
same,OD300,porcine skin; [3],0.040 and 0.050
same,OD190,porcine skin; frozen porcine skin,0.362 and 0.371
same,OD290,porcine skin; frozen porcine skin,0.245 and 0.241
same,OD300,porcine skin; frozen porcine skin,0.154 and 0.137
same,"percent of phosphatase measured (optical density compared to the naïve condition), average",phosphatase; average of two readings,97.2%
same,percent of phosphatase measured (optical density compared to the naïve condition),phosphatase; single readings,100.0% and 94.4%
same,"OD405 readings, glass vials (FIG. 12B)",alkaline phosphatase [1],0.804 and 0.852 and 0.901
same,"OD405 readings, microcentrifuge tubes (FIG. 12B)",alkaline phosphatase [1],2.360 and 2.539 and 2.690
same,A2 - Results AVG,alkaline phosphatase [2],2.408
same,A2 - Results R1,alkaline phosphatase [2],2.730
same,A2 - Results R3,alkaline phosphatase [2],2.098
same,Corrosive,skin,No
same,in vivo GHS,skin,Cat. 2
